{
  "source": "paper PMC5626781",
  "about": "“A Potent Tartrate Resistant Acid Phosphatase Inhibitor to Study the Function of TRAP in Alveolar Macrophages” (Scientific Reports, 2017)",
  "key": {"[1]": {"target": "T1, TRAP activity in lysates of murine MPI alveolar macrophages (Mus musculus, UniProt Q05117)", "T1 construct": "endogenous in cells; host or cells: murine MPI alveolar-like macrophages", "T1 sequence (Q05117 23-327)": "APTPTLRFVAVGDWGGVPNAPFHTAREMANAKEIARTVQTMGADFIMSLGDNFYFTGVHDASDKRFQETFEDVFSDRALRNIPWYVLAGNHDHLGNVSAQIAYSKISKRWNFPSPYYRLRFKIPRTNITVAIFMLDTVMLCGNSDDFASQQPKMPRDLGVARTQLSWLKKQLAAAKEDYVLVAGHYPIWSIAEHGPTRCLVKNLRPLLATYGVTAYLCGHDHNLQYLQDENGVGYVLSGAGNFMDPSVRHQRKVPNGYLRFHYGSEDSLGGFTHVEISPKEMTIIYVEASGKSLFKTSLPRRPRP", "assay": "TRAP activity assay on MPI alveolar macrophage lysates", "assay_type": "biochemical", "details": "cell lysates of murine MPI alveolar macrophages; mean ± standard error, n = 3", "method": "Mouse alveolar macrophage lysates were obtained by resuspending 500.000 MPI macrophages in 300 μl acetate buffer. Human lung lysates from COPD patients were used to test the inhibitor on human TRAP present in lung tissue. Lysates from in total 18 COPD patients were pooled (see Supplementary Table S3 for patient characteristics).\n(§1) AubipyOMe was tested in the range 0–40 μM with MPI cell lysates or pooled lung tissue lysates from COPD patients using a TRAP activity assay. Lysates were incubated at 37 °C for 30 min in the presence of PNPP solution (1:1 ratio). 1M NaOH was added to stop the reaction and absorption was measured at 410 nm with 490 nm as a reference value.\n(§2) The inhibitory effects of gold compounds were calculated as the ratio of absorbance between the treated and untreated wells. The IC50 values were calculated using nonlinear curve fitting with a variable slope in Graphpad Prism 6 (Graphpad Software, la Jolla, USA). An average IC50 of three independent experiments was calculated.\nIdentification of TRAP inhibitors […]\nInhibitor dilutions were prepared in acetate buffer from freshly prepared stock solutions (10 mM in DMSO). […] To stop the reaction, 1M NaOH was added and absorption at 410 nm, with 490 nm as a reference value, was measured using a spectrophotometer. […]\nThe inhibitory effects of gold compounds were calculated as the ratio of absorbance between the treated and untreated wells. […]"}, "RAW264.7 macrophages": {"system": "RAW264.7 macrophages", "assay": "MTT assay", "assay_type": "cell-based, mouse", "method": "The effect of AubipyOMe and NaAuCl4 on RAW264.7 cell growth was assessed with a classical MTT assay. The IC50 values were calculated using nonlinear curve fitting with a variable slope in Graphpad Prism 6 (Graphpad Software) An average IC50 of four independent experiments was calculated.\nas §1, with “0-40” for “0–40”, “assay. MPI lysates were diluted 1:1 and COPD tissue lysates 1:20 with acetate buffer and incubated with increasing concentrations inhibitor, that were prepared from freshly made stock solutions (10 mM in DMSO) and diluted with acetate buffer.” for “assay.”, “37° C” for “37 °C”\nas §2\nThe effect of AubipyOMe and NaAuCl4 on cell growth was assessed with a classical MTT assay.\nRAW264.7 macrophages were seeded in 96-well plates at a concentration of 10,000 cells/well and grown for 24h in complete medium. Compound dilutions were prepared in complete medium from a freshly prepared stock solution (10 mM in DMSO) and added to the wells (200 μl) to obtain a final concentration (0 to 100 μM). […] The optical density of each well was quantified in quadruplicate at 540 nm, using a multi-well plate reader, and the percentage of surviving cells was calculated from the ratio of absorbance between treated and untreated cells. The IC50 values were calculated using nonlinear curve fitting with a variable slope in Graphpad Prism 6 (Graphpad Software) An average"}},
  "data": [
    {"compound": "COc1ccnc(-c2cc(OC)ccn2)c1.F[P-](F)(F)(F)(F)F.[Cl][Au+][Cl]", "note": "[AubipyOMe, [Au(4,4′-dimethoxy-2,2′-bipyridine)Cl2][PF6]]", "values": [
      {"measurement": "IC50", "setting": "[1]", "value": "1.7 ± 0.4", "unit": "µM"},
      {"measurement": "IC50", "setting": "RAW264.7 macrophages; RAW264.7 macrophages, 72 h, n = 4, read-out: IC50 cytotoxicity", "value": "~35", "unit": "µM"},
      {"measurement": "cytotoxic effects on RAW264.7 macrophages", "setting": "RAW264.7 macrophages; at concentrations around the TRAP IC50 values", "value": "no cytotoxic effects"}
    ]}
  ]
}
